Laboratory results published in ChEMBL document CHEMBL2390821, “Flaxseed (Linum usitatissimum L.) extract as well as (+)-secoisolariciresinol diglucoside and its mammalian derivatives are potent inhibitors of α-amylase activity” (Bioorg Med Chem Lett, 2013).
Activity calls are given as the source filed them. No cut-off for these calls is given here.

Tests used:
Rattus norvegicus = species on record: Rattus norvegicus; assay: Inhibition of immobilized rat intestinal alpha-glucosidase using 4-nitrophenyl-alpha-D-glucopyranoside as substrate assessed as enzyme activity after 30 mins by spectrophotometry relative to control; parameters: concentration or dose not given beside the values
[1] = Inhibition of pig pancreas soluble alpha-amylase using 4-nitrophenyl-alpha-D-maltopentaoside as substrate after 30 mins by spectrophotometry; parameters: species or system Sus scrofa
[2] = […] inhibition of pig pancreas soluble alpha-amylase using 4-nitrophenyl-alpha-D-maltopentaoside as substrate assessed as enzyme-substrate-inhibitor dissociation constant after 30 mins by double reciprocal plot method; parameters: species or system Sus scrofa
[3] = […] inhibition of pig pancreas soluble alpha-amylase using 4-nitrophenyl-alpha-D-maltopentaoside as substrate assessed as enzyme-inhibitor dissociation constant after 30 mins by double reciprocal plot method; parameters: species or system Sus scrofa
Sus scrofa = species on record: Sus scrofa; assay: Mixed-type inhibition of pig pancreas soluble alpha-amylase using 4-nitrophenyl-alpha-D-maltopentaoside as substrate assessed as formation of inactive enzyme-inhibitor complex after 30 mins by spectrophotometry

Row | SMILES | Activity (Rattus norvegicus) | IC50 [1] | Ki [2] | Ki [3] | inhibition (Sus scrofa)
1 | C[C@H]1O[C@H](O[C@H]2[C@H](O)[C@@H](O)[C@@H](O[C@H]3[C@H](O)[C@@H](O)C(O)O[C@@H]3CO)O[C@@H]2CO)[C@H](O)[C@@H](O)[C@@H]1N[C@H]1C=C(CO)[C@@H](O)[C@H](O)[C@H]1O (some centres not stated) | 34.4% | – | – | – | –
2 | O=C1OC[C@@H](Cc2cccc(O)c2)[C@@H]1Cc1cccc(O)c1 [(+)-ENTEROLACTONE] | 73.9% | 10.9 µM | – | – | –
3 | COc1cc(C[C@H](CO[C@@H]2O[C@H](CO)[C@@H](O)[C@H](O)[C@H]2O)[C@@H](CO[C@@H]2O[C@H](CO)[C@@H](O)[C@H](O)[C@H]2O)Cc2ccc(O)c(OC)c2)ccc1O [(+)-SECOISOLARICIRESINOLDIGLUCOSIDE] | 74.3% | 15.7 µM | – | – | –

More lines, in order of falling IC50 [1], values ahead:

Row | Activity (Rattus norvegicus) | IC50 [1] | Ki [2] | Ki [3] | inhibition (Sus scrofa) | SMILES
4 | 72.4% | 9.5 µM | – | – | – | COc1cc(C[C@@H](CO)[C@H](CO)Cc2ccc(O)c(OC)c2)ccc1O [(+)-SECOISOLARICIRESINOL]
5 | 69.9% | 8.6 µM | 40.3 µM | 94.1 µM | Active | OC[C@@H](Cc1cccc(O)c1)[C@@H](CO)Cc1cccc(O)c1 [(+)-ENTERODIOL]
